Measurements taken from PMC10802846 (Cell chemical biology, 2023).
Entries after “also recorded” stand apart in the source; their conditions may differ. Where two headings read alike, the source gives them in different places. Residues, ends and D or L forms follow the SMILES beside them. *: point of attachment. Cbz = O=C(OCc1ccccc1)*

Columns and labels:
HDAC8 [1] = molecular target: T1, HDAC8 (Homo sapiens, UniProt Q9BY41); assay: HDAC8 degradation by Western blot in MDA-MB-231 cells; format: cell-based
T1 sequence (Q9BY41 1-377): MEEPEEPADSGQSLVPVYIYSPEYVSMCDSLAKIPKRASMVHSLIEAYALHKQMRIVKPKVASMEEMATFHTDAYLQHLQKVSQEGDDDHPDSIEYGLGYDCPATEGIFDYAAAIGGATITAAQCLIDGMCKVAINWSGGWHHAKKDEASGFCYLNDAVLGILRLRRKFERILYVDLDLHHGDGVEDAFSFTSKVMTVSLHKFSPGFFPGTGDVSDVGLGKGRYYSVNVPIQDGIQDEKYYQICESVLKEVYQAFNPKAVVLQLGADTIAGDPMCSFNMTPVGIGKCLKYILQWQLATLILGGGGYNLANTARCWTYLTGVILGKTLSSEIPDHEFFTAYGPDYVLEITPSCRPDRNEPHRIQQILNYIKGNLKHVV

HDAC3 = HDAC3 (Homo sapiens, UniProt O15379+P40337); assay: HDAC3 degradation by Western blot in MDA-MB-231 cells; format: cell-based
BC cell lines = assay: Colony formation assays, comparison across several BC cell lines; format: cell-based, human; conditions: alone or in combination
MDA-MB-231 cells = assay: RNA-seq differential gene expression; format: cell-based, human; conditions: for number of downregulated genes / number of upregulated genes: 24 h, fold-change≥|2|, p ≤ 0.01
HDAC8 [2] = molecular target: T1, HDAC8; assay: HDAC activity assay; format: biochemical
MDA-MB-231 = assay: Colony formation assay, MDA-MB-231; format: cell-based, human
T47D = assay: Colony formation assay, T47D; format: cell-based, human
HDAC1 [3] = molecular target: T2, HDAC1 (Homo sapiens, UniProt Q13547); assay: HDAC1 protein level by Western blot in MCF7 and MDA-MB-231 cells; format: cell-based
HDAC2 = HDAC2 (Homo sapiens, UniProt Q92769); assay: HDAC2 protein level by Western blot in MCF7 and MDA-MB-231 cells; format: cell-based
caspase 3 (CASP3) = assay: CASP3 cleavage; format: cell-based, human; conditions: MDA-MB-231, 16 h
acetylated SMC3 = assay: Acetylated SMC3 by Western blot in MDA-MB-231 cells; format: cell-based, human; conditions: YX968 16 nM, 14 h
MCF7 = assay: Colony formation assay, MCF7; format: cell-based, human
p21 = p21 induction by Western blot in MDA-MB-231 cells; format: cell-based, human; conditions: MDA-MB-231, 16 h
H1299 = assay: Colony formation assay, H1299; format: cell-based, human
BT549 = assay: Colony formation assay, BT549; format: cell-based, human
MDA-MB-468 = assay: Colony formation assay, MDA-MB-468; format: cell-based, human
cell cycle progression = assay: Cell cycle profiling; format: cell-based; conditions: 24 h
HDAC1 [4] = molecular target: T2, HDAC1; assay: HDAC activity assay; format: biochemical
HCC1806 = assay: Colony formation assay, HCC1806; format: cell-based, human
[5] = tested on: acetylated core histones (H3K27ac, H2BK5ac, and H4K8ac); assay: Histone acetylation by Western blot; format: cell-based, human
[6] = molecular target: HDAC1 and the VHL complex (Homo sapiens, UniProt Q13547); assay: AlphaLISA ternary complex formation, HDAC1; format: binding; conditions: broad range of YX968 concentrations
HDAC1/3/8 = HDAC1/3/8 inhibitory activity in vitro, statements across the three isozymes; format: biochemical; conditions: for HDAC1/3/8 inhibitory potency and selectivity: warhead analogues
[7] = pretreatment with probe, then YX968, MDA-MB-231
[8] = q-value ≤0.05 and fold-change ≥|2.0|

HDAC3, sequence (O15379 whole entry): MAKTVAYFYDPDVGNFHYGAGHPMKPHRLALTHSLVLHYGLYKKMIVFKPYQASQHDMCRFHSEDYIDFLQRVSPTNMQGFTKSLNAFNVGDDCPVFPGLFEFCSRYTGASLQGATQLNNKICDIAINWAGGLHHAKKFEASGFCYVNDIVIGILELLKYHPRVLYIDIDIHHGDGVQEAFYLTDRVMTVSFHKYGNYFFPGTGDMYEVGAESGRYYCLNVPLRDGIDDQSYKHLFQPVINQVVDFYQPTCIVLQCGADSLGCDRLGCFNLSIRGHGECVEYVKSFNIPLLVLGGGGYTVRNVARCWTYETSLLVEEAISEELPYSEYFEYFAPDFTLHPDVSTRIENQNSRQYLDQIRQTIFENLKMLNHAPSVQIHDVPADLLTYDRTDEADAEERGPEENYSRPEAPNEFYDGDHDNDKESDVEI
HDAC3, sequence (O75376 whole entry partner): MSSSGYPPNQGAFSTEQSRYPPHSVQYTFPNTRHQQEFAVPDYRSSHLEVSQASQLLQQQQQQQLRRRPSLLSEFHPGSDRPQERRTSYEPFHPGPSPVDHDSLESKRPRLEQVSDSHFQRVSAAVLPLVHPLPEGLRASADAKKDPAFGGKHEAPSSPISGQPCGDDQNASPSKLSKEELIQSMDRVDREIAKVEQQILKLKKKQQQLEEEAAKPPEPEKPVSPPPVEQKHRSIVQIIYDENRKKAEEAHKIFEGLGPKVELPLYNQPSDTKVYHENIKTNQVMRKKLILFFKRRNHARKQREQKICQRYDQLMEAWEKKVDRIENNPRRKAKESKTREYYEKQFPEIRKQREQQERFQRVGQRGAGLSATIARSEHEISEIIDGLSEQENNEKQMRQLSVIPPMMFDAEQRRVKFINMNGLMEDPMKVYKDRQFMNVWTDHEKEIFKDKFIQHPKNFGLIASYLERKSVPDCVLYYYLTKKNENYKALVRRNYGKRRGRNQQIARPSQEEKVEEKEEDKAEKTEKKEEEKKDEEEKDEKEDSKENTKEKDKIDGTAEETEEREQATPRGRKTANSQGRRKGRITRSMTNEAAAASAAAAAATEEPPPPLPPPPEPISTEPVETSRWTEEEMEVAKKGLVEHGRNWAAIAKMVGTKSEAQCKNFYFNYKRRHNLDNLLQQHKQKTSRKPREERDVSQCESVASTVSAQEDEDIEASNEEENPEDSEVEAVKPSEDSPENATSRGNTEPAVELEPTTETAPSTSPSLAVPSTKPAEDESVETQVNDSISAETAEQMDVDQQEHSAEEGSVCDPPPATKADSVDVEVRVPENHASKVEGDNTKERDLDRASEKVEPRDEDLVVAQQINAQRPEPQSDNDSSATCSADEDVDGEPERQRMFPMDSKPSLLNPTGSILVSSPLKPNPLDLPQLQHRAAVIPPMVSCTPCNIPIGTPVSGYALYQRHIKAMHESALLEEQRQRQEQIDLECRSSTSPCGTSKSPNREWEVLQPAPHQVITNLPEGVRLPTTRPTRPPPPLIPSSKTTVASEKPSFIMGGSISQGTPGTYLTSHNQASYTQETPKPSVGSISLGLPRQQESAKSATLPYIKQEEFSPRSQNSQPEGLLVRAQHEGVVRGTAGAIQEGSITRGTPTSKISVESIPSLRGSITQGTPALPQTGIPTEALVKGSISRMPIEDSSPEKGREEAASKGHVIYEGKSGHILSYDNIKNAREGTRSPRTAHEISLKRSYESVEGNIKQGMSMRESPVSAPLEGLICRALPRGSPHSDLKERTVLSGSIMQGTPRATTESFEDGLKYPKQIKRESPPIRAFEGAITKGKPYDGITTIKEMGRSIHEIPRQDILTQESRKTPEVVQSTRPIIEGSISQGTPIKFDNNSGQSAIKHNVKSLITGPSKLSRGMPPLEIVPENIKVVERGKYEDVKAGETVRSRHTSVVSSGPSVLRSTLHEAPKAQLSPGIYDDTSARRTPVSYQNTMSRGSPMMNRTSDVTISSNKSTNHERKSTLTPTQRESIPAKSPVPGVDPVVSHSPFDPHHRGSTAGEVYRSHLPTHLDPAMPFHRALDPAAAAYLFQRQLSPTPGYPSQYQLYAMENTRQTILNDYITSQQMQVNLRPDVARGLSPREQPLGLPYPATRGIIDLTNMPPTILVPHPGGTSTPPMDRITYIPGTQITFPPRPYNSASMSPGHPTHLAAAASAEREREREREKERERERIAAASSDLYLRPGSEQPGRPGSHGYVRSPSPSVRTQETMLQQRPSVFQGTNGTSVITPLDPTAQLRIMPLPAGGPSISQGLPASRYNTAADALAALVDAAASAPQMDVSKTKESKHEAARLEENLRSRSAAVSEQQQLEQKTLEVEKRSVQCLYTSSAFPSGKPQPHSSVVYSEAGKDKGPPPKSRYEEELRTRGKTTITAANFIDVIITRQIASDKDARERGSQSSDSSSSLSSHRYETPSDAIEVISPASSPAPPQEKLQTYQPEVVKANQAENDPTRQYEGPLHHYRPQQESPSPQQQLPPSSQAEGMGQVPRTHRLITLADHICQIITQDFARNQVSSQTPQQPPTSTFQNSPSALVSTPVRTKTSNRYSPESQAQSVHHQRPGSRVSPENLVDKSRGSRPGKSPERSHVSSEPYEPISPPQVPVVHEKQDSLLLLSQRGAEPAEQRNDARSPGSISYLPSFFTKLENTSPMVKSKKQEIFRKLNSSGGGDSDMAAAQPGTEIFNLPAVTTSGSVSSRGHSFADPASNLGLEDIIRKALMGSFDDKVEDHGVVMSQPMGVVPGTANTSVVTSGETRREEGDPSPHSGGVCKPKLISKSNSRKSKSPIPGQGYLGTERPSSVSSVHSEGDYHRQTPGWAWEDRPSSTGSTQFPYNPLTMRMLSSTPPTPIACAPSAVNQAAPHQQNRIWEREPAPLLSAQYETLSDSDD
HDAC3, sequence (P40337 whole entry): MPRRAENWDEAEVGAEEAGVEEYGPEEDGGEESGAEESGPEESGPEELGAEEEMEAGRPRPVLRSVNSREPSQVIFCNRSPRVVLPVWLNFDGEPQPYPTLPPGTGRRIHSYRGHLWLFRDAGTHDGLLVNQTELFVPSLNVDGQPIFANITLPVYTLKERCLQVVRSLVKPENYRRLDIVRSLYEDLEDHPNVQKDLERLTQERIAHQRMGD
HDAC3, sequence (Q15370 whole entry partner): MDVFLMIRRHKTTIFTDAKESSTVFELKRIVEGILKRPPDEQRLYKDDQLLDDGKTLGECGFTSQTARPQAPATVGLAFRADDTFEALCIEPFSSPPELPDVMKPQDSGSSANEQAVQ
HDAC3, sequence (Q15369 whole entry partner): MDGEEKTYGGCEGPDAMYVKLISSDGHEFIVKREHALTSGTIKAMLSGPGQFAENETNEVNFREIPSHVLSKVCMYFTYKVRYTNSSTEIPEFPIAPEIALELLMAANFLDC
T2 sequence (Q13547 whole entry): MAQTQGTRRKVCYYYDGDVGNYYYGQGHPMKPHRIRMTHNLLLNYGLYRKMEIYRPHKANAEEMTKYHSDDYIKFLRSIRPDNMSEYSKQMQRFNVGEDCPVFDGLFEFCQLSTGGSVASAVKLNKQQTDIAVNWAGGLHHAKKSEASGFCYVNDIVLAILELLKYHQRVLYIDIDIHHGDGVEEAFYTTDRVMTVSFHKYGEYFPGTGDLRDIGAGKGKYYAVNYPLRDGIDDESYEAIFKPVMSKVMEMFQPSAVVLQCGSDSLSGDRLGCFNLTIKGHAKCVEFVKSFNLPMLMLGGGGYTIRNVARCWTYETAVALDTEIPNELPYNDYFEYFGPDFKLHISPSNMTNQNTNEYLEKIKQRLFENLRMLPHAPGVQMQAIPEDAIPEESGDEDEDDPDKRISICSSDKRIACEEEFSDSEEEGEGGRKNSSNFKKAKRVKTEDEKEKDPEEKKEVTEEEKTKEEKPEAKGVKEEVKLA
HDAC2, sequence (Q92769 whole entry): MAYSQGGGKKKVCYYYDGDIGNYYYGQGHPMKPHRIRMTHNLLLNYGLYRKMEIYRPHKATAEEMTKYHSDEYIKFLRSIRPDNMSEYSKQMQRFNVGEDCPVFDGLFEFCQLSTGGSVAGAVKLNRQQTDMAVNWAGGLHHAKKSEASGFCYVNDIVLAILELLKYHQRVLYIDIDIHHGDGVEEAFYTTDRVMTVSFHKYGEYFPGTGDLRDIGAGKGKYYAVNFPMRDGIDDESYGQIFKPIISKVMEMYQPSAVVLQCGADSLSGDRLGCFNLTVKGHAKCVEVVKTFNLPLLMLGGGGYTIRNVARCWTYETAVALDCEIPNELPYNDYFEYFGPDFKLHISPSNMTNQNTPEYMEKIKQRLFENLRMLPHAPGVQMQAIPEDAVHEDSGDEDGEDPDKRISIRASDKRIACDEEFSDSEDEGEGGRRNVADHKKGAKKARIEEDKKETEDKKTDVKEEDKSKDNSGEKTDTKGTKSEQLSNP
HDAC1 and the VHL complex, sequence (Q13547 whole entry, one chain of several): as the sequence (Q13547 whole entry) above

`Cc1cc2c(C(N)=O)cccc2n1-c1nc2c(c(NCc3ccccc3)n1)COCC2` [CB-5803] was tested, and the “effect of pretreatment on YX968-mediated HDAC8 degradation” value (HDAC8 [1]) was “effectively blocked” and the “effect of pretreatment on YX968-mediated HDAC3 degradation” value (HDAC3) was “only slightly rescued”.

In the case of `CC(C)C[C@@H](C=O)NC(=O)[C@H](CC(C)C)NC(=O)[C@H](CC(C)C)NC(=O)OCc1ccccc1` [MG132] (Cbz-Leu-Leu-Leu-aldehyde), the “effect of pretreatment on YX968-mediated HDAC8 degradation” value (HDAC8 [1]; [7]) is reported as “blocked”, the “effect of pretreatment on YX968-mediated HDAC8 degradation” value (HDAC8 [1]; probe at 3 μM) is reported as “effectively blocked” and the “effect of pretreatment on YX968-mediated HDAC3 degradation” value (HDAC3; [7]) is reported as “blocked”. For the same compound, the “effect of pretreatment on YX968-mediated HDAC3 degradation” value (HDAC3; probe at 3 μM) was “only moderately reversed” and the “effect of pretreatment on YX968-mediated HDAC3 degradation” value (HDAC3; probe at 10 μM) was “more effectively rescued”.

For `NS(=O)(=O)OC[C@@H]1C[C@@H](n2ccc3c(N[C@H]4CCc5ccccc54)ncnc32)C[C@@H]1O` [MLN4924], the “effect of pretreatment on YX968-mediated HDAC8 degradation” value (HDAC8 [1]; [7]) was “highly effective in blocking” and the “effect of pretreatment on YX968-mediated HDAC3 degradation” value (HDAC3; [7]) was “highly effective in blocking”.

For `COc1ccc(Cn2ccc3ccc(C(=O)NO)cc32)cc1` [PCI 34051], the “potency to suppress cell growth vs YX968” value (BC cell lines) was “less potent than YX968”.

With `Nc1cc(F)ccc1NC(=O)/C=C/c1cnn(C/C=C/c2ccccc2)c1` [RGFP-966] the “potency to suppress cell growth vs YX968” value (BC cell lines) was “less potent than YX968”.

`CCCCNNC(=O)c1ccc(Br)cc1` [UF010] was tested, and the “number of downregulated genes” value (MDA-MB-231 cells; UF010 treatment) was 761, the “number of upregulated genes” value (MDA-MB-231 cells; UF010 treatment) was 2,678 and the “number of downregulated DEGs” value (MDA-MB-231 cells; [8]) was 572. For the same compound, the “number of upregulated DEGs” value (MDA-MB-231 cells; [8]) was 1,792.

For `CC(=O)N[C@H](C(=O)N1C[C@H](O)C[C@H]1C(=O)NCc1ccc(-c2scnc2C)cc1)C(C)(C)C` [VH032], the “effect of pretreatment on YX968-mediated HDAC8 degradation” value (HDAC8 [1]; [7]) was “effectively competed”.

In the case of `CCCNNC(=O)c1ccc(-c2ccc(NC(=O)CCCCCCC(=O)N[C@H](C(=O)N3C[C@H](O)C[C@H]3C(=O)N[C@@H](C)c3ccc(-c4scnc4C)cc3)C(C)(C)C)cc2)cc1` [XZ9002, reference compound], the IC50 (HDAC8 [2]) is reported as 1090 nM and the “inhibition of clonogenic growth” value (MDA-MB-231; MDA-MB-231, 3 μM) is reported as “moderate inhibition”.

In the case of `CCCNNC(=O)c1ccc(N2CCN(CCCCCCCC(=O)N[C@H](C(=O)N3C[C@H](O)C[C@H]3C(=O)N[C@@H](C)c3ccc(-c4scnc4C)cc3)C(C)(C)C)CC2)cc1` [YX968, (2S,4R)-1-((S)-3,3-dimethyl-2-(8-(4-(4-(2-propylhydrazine-1-carbonyl)phenyl)piperazin-1-yl)octanamido)butanoyl)-4-hydroxy-N-((S)-1-(4-(4-methylthiazol-5-yl)phenyl)ethyl)pyrrolidine-2-carboxamide], the “concentration at which clonogenic growth was effectively inhibited” value (T47D) is reported as 125 nM, the “effect on HDAC1 protein level” value (HDAC1 [3]) is reported as “did not affect; also recorded: not degraded” and the “number of downregulated genes” value (MDA-MB-231 cells; 50 nM) is reported as 41. For the same compound, the “number of upregulated genes” value (MDA-MB-231 cells; 50 nM) was 53, the “significant DEGs” value (MDA-MB-231 cells; [8]) was “no significant DEGs” and the “effect on HDAC2 protein level” value (HDAC2) was “did not affect; also recorded: not degraded”. The “CASP3 cleavage (activation)” value (caspase 3 (CASP3)) was “in a dose-dependent manner”, the “concentration at which weak CASP3 activation was notable” value (caspase 3 (CASP3)) was 63 nM and the “levels of acetylated SMC3” value (acetylated SMC3) was “increased”. For the same compound, the “concentration at which clonogenic growth was effectively inhibited” value (MCF7) was 125 nM, the “concentration at which weak p21 induction was seen” value (p21) was 250 nM and the “clonogenic growth sensitivity” value (H1299) was “quite resistant”. For the same compound, the “clonogenic growth suppression” value (MDA-MB-231; MDA-MB-231) was “effectively suppressed at a sub-μM concentration”, the “concentration at which clonogenic growth was effectively inhibited” value (BT549) was 125 nM and the “concentration at which clonogenic growth was effectively inhibited” value (MDA-MB-468) was 125 nM. The “effect on cell cycle” value (cell cycle progression; 0.1 μM) was “negligibly perturbed; also recorded: did not alter cell cycle”, the “effect on cell cycle” value (cell cycle progression; 1 μM) was “strong G1 arrest; also recorded: markedly induced G1 arrest” and the IC50 (HDAC1 [4]) was 591 nM. The “concentration at which clonogenic growth was effectively inhibited” value (HCC1806) was 125 nM, the “levels of acetylated core histones” value ([5]; MCF-7 and MDA-MB-231 cells) was “dose-dependently increased” and the “concentration at which H3K27ac was weakly detectable” value ([5]; MDA-MB-231, 16 h) was 63 nM. For the same compound, the “ternary complex formation with HDAC1” value [6] was “not able to induce a complex”.

`CC[C@H](NC(=O)[C@H](C)NC)C(=O)N1C[C@@H](O)C[C@H]1Cc1c(-c2[nH]c3cc(F)ccc3c2C[C@@H]2C[C@H](O)CN2C(=O)[C@H](CC)NC(=O)[C@H](C)NC)[nH]c2cc(F)ccc12` [birinapant, reference compound] was tested, and the “CASP3 cleavage (activation)” value (caspase 3 (CASP3)) was “activated CASP3”.

For `CC(C)C[C@H](NC(=O)[C@H](Cc1ccccc1)NC(=O)c1cnccn1)B(O)O` [bortezomib], the “effect of pretreatment on YX968-mediated HDAC3 degradation” value (HDAC3; [7]) was “could also reverse”.

In the case of `CCCNNC(=O)c1ccc(N2CCN(C(C)=O)CC2)cc1` [compound 14, 4-(4-acetylpiperazin-1-yl)-N′-propylbenzohydrazide], the “fold less potent than 15 for the three HDAC isozymes” value (HDAC1/3/8; HDAC1, HDAC3, HDAC8) is reported as 3- to 7 fold and the “HDAC1/3/8 inhibitory potency and selectivity” value (HDAC1/3/8) is reported as “preferentially inhibited HDAC3”.

In the case of `CCCNNC(=O)c1ccc(N2CCN(C)CC2)cc1` [compound 15, 4-(4-methylpiperazin-1-yl)-N′-propylbenzohydrazide], the “HDAC1/3/8 inhibitory potency and selectivity” value (HDAC1/3/8) is reported as “highest potency among all the new analogues”.

With `CCCNNC(=O)c1ccc(CN2CCN(C(C)=O)CC2)cc1` [compound 16, 4-((4-acetylpiperazin-1-yl)methyl)-N′-propylbenzohydrazide] the “HDAC1/3/8 inhibitory potency and selectivity” value (HDAC1/3/8) was “dramatic decline of selectivity and potency”.
